Source: patent publication US10479795B2 (Incyte Corporation, priority 2016, dated 2019)
Structures can show the parent of a compound that is named as a salt.

Assays:
[1] = molecular target: PI3Kγ (p110γ) Recombinant Human Protein (Homo sapiens (Human), UniProt P48736); assay: PI3K-γ Scintillation Proximity Assay; assay type: biochemical; conditions: read-out: PI3Kγ IC50
Outline: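 Radiometric SPA readout: […] bound to WGA beads after overnight shaking, IC50 derived from % activity of DMSO control. Reaction used human p110γ, 2 μM ATP, 20 μM PIP2, pH 6.7 MOPS buffer with MgCl2, DTT, CHAPS, 2% DMSO, room temperature.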

[2] = tested on: Phosphorylated Ribosomal Protein S6 (RPS6); assay: THP-1 RPS6 ELISA Assay; assay type: cell-based, Human; conditions: THP-1 cells; read-out: PI3Kγ_THP1_RPS6_ELISA IC50
Outline: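 IC50 values come from a curve of percent inhibition against log compound concentration, using phospho-RPS6 ELISA (450 nm) on THP-1 lysates. Cells were serum-starved overnight, exposed to compound for 2 h at 37 °C, then challenged 15 min with 10 nM MCP-1.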

[3] = molecular target: PI3Kδ (p110δ/p85α) Recombinant Human Protein (Homo sapiens (Human), UniProt O00329); assay: PI3Kδ Scintillation Proximity Assay; assay type: biochemical
Chain of PI3Kδ (p110δ/p85α) Recombinant Human Protein (O00329 whole entry): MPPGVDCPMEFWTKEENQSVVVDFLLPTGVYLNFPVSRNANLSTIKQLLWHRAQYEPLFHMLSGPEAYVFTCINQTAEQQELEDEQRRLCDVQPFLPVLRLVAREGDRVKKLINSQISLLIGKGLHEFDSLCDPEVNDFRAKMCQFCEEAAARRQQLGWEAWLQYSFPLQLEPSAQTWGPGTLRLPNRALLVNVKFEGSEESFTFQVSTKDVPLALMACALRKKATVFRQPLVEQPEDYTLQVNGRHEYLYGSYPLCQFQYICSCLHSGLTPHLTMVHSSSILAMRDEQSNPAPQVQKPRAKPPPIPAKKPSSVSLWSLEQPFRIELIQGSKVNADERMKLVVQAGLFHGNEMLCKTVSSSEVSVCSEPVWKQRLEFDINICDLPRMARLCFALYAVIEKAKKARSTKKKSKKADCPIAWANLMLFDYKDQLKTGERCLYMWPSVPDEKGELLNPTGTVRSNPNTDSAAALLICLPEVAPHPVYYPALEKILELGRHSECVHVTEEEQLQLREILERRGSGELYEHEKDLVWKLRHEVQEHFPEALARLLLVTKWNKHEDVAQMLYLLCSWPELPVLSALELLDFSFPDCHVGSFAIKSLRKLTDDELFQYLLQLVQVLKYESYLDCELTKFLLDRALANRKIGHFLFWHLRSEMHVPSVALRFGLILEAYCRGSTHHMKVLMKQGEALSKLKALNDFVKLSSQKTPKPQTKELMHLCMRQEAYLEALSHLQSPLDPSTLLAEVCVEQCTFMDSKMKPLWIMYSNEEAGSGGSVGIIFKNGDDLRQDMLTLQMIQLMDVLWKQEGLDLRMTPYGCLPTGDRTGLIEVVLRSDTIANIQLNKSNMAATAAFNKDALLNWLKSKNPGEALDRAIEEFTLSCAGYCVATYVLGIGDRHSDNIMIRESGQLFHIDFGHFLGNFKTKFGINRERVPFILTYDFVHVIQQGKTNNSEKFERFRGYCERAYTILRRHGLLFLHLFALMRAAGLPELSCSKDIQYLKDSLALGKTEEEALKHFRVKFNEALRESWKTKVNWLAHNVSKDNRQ
Chain of PI3Kδ (p110δ/p85α) Recombinant Human Protein (P27986 whole entry partner): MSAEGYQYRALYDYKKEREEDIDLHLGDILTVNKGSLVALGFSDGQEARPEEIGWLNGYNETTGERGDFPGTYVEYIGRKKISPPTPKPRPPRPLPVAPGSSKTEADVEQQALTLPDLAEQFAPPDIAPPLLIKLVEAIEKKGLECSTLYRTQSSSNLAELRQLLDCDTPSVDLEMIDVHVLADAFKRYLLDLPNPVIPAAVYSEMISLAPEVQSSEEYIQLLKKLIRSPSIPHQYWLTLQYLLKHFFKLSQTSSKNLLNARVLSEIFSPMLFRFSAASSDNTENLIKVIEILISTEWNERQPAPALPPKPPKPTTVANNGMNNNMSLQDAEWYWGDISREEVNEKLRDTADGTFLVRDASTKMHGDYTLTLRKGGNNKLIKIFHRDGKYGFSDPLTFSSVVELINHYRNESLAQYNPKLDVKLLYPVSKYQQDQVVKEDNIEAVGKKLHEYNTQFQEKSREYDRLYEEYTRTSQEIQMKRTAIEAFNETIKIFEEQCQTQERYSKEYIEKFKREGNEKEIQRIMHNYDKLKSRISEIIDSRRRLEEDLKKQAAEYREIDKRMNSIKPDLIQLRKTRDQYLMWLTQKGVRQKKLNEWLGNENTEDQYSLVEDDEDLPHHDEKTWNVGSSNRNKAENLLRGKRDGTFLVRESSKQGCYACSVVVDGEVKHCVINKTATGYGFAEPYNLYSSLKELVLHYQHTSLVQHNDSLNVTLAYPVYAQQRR
Outline: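 Assay conditions: 2 μM ATP (radiolabelled), 20 μM PIP2, 3.4 nM PI3Kδ, 20 mM MOPS pH 6.7 with 10 mM MgCl2, 5 mM DTT, 0.03% CHAPS, 2 h at room temperature. Signal from bead-captured 33P product; IC50 versus solvent control.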

Chain of PI3Kγ (p110γ) Recombinant Human Protein (P48736 whole entry): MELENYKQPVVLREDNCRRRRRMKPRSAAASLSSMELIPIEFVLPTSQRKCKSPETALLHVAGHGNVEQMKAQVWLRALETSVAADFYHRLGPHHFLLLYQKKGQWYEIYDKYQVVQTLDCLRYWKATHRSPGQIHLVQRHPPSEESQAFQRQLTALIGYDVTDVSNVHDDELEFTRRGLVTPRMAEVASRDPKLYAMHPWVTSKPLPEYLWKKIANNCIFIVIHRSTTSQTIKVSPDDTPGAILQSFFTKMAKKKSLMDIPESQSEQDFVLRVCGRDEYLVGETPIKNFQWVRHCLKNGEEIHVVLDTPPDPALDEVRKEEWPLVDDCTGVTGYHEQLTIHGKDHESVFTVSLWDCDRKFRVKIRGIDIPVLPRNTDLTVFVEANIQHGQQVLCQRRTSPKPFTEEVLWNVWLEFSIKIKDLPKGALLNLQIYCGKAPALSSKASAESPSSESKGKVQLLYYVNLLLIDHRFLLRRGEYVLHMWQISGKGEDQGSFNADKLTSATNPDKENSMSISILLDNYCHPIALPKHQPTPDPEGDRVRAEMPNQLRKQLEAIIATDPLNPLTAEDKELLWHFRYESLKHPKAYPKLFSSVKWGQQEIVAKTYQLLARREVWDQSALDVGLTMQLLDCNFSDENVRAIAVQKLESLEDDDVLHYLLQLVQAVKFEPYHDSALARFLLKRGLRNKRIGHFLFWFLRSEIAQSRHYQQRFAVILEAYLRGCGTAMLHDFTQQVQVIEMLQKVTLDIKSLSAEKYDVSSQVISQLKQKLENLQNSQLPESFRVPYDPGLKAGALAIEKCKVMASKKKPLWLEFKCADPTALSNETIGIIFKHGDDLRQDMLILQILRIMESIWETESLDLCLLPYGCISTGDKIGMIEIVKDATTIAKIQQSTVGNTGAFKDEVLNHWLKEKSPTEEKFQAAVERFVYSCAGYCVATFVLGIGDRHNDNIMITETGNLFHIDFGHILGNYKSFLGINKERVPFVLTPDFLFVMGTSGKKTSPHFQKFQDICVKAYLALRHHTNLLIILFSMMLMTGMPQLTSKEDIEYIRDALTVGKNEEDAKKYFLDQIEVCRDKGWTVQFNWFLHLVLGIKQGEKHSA

| Compound | IC50 [1] [µM] | IC50 [2] [µM] | IC50 [3] [µM] |
| --- | --- | --- | --- |
| Cc1ccc(S(=O)(=O)N[C@H]2C[C@](C)(C#N)C2)cc1-c1cnc2c(N)ncnn12 [Example 87, 3-(4-Aminoimidazo[1,2-f][1,2,4]triazin-7-yl)-N-((1r,3r)-3-cyano-3-methylcyclobutyl)-4-methylbenzenesulfonamide trifluoroacetate salt] | < 0.1 | 0.1 to 0.5 | 0.1 to 0.5 |
| COC(=O)C12CC(NS(=O)(=O)c3ccc(C)c(-c4cnc5c(N)ncnn45)c3)(C1)C2 [Example 88, Methyl 3-(3-(4-aminoimidazo[1,2-f][1,2,4]triazin-7-yl)-4-methylphenylsulfonamido)bicyclo[1.1.1]pentane-1-carboxylate trifluoroacetate salt] | < 0.1 | < 0.1 | 0.1 to 0.5 |
| Cc1ccc(S(=O)(=O)N[C@H]2C[C@H](C#N)C2)cc1-c1cnc2c(N)ncnn12 [Example 89, 3-(4-Aminoimidazo[1,2-f][1,2,4]triazin-7-yl)-N-((1r,3r)-3-cyanocyclobutyl)-4-methylbenzenesulfonamide trifluoroacetate salt] | < 0.1 | < 0.1 | 0.1 to 0.5 |
| Cc1ccc(S(=O)(=O)NC23CCC(C#N)(CC2)C3)cc1-c1cnc2c(N)ncnn12 [Example 90, 3-(4-Aminoimidazo[1,2-f][1,2,4]triazin-7-yl)-N-(4-cyanobicyclo[2.2.1]heptan-1-yl)-4-methylbenzenesulfonamide trifluoroacetate salt] | < 0.1 | < 0.1 | 0.1 to 0.5 |
| Cc1ccc(S(=O)(=O)NC23CC(CC#N)(C2)C3)cc1-c1cnc2c(N)ncnn12 [Example 91, trifluoroacetate salt] | < 0.1 | 0.1 to 0.5 | 0.1 to 0.5 |
| Cc1ccc(S(=O)(=O)NC23CC(Cn4cccn4)(C2)C3)cc1-c1cnc2c(N)ncnn12 [Example 92, N-(3-((1H-pyrazol-1-yl)methyl)bicyclo[1.1.1]pentan-1-yl)-3-(4-aminoimidazo[1,2-f][1,2,4]triazin-7-yl)-4-methylbenzenesulfonamide trifluoroacetate salt] | < 0.1 | < 0.1 | 0.1 to 0.5 |
| Cc1ccc(S(=O)(=O)NC23CC(C(C)(C)O)(C2)C3)cc1-c1cnc2c(N)ncnn12 [Example 93, 3-(4-Aminoimidazo[1,2-f][1,2,4]triazin-7-yl)-N-(3-(2-hydroxypropan-2-yl)bicyclo[1.1.1]pentan-1-yl)-4-methylbenzenesulfonamide trifluoroacetate slt] | < 0.1 | 0.1 to 0.5 | 0.1 to 0.5 |
| Cc1noc(C23CC(NS(=O)(=O)c4ccc(C)c(-c5cnc6c(N)ncnn56)c4)(C2)C3)n1 [Example 94, 3-(4-Aminoimidazo[1,2-f][1,2,4]triazin-7-yl)-4-methyl-N-(3-(3-methyl-1,2,4-oxadiazol-5-yl)bicyclo[1.1.1]pentan-1-yl)benzenesulfonamide trifluoroacetate salt] | < 0.1 | 0.5 to 1 | 0.1 to 0.5 |
| CC(=O)C12CC(NS(=O)(=O)c3ccc(C)c(-c4cnc5c(N)ncnn45)c3)(C1)C2 [Example 95, N-(3-Acetylbicyclo[1.1.1]pentan-1-yl)-3-(4-aminoimidazo[1,2-f][1,2,4]triazin-7-yl)-4-methylbenzenesulfonamide trifluoroacetate salt] | < 0.1 | 0.1 to 0.5 | 0.1 to 0.5 |
| Cc1ccc(S(=O)(=O)NC23CC(C(=O)N(C)C)(C2)C3)cc1-c1cnc2c(N)ncnn12 [Example 96, 3-(3-(4-Aminoimidazo[1,2-f][1,2,4]triazin-7-yl)-4-methylphenylsulfonamido)-N,N-dimethylbicyclo[1.1.1]pentane-1-carboxamide trifluoroacetate salt] | < 0.1 | > 1 | 0.1 to 0.5 |
| Cc1ccc(S(=O)(=O)NC23CC(C(F)(F)F)(C2)C3)cc1-c1cnc2c(N)ncnn12 [Example 97, 3-(4-Aminoimidazo[1,2-f][1,2,4]triazin-7-yl)-4-methyl-N-(3-(trifluoromethyl)bicyclo[1.1.1]pentan-1-yl)benzenesulfonamide trifluoroacetate salt] | < 0.1 | 0.1 to 0.5 | 0.1 to 0.5 |
| Cc1ccc(S(=O)(=O)NC23CC(F)(C2)C3)cc1-c1cnc2c(N)ncnn12 [Example 98, 3-(4-Aminoimidazo[1,2-f][1,2,4]triazin-7-yl)-N-(3-fluorobicyclo[1.1.1]pentan-1-yl)-4-methylbenzenesulfonamide trifluoroacetate salt] | < 0.1 | 0.1 to 0.5 | 0.5 to 2 |
| Cc1ccc(S(=O)(=O)NC23CC(c4nnn[nH]4)(C2)C3)cc1-c1cnc2c(N)ncnn12 [Example 99, N-(3-(1H-tetrazol-5-yl)bicyclo[1.1.1]pentan-1-yl)-3-(4-aminoimidazo[1,2-f][1,2,4]triazin-7-yl)-4-methylbenzenesulfonamide trifluoroacetate salt] | < 0.1 | > 1 | 0.5 to 2 |
| Cc1ccc(S(=O)(=O)NC2CCOC2C)cc1-c1cnc2c(N)ncnn12 (stereo not drawn) [Example 100, 3-(4-Aminoimidazo[1,2-f][1,2,4]triazin-7-yl)-4-methyl-N-(2-methyltetrahydrofuran-3-yl)benzenesulfonamide trifluoroacetate salt] | < 0.1 | 0.5 to 1 | 0.5 to 2 |
| Cc1ccc(S(=O)(=O)NCC2(C#N)CC2)cc1-c1cnc2c(N)ncnn12 [Example 101, 3-(4-Aminoimidazo[1,2-f][1,2,4]triazin-7-yl)-N-((1-cyanocyclopropyl)methyl)-4-methylbenzenesulfonamide trifluoroacetate salt] | < 0.1 | > 1 | 0.5 to 2 |
| Cc1ccc(S(=O)(=O)NCC2(C#N)CCC2)cc1-c1cnc2c(N)ncnn12 [Example 102, 3-(4-Aminoimidazo[1,2-f][1,2,4]triazin-7-yl)-N-((1-cyanocyclobutyl)methyl)-4-methylbenzenesulfonamide trifluoroacetate salt] | < 0.1 | 0.1 to 0.5 | 0.1 to 0.5 |
| CC(=O)N1CC(NS(=O)(=O)c2ccc(C)c(-c3cnc4c(N)ncnn34)c2)C1 [Example 103, N-(1-Acetylazetidin-3-yl)-3-(4-aminoimidazo[1,2-f][1,2,4]triazin-7-yl)-4-methylbenzenesulfonamide trifluoroacetate salt] | < 0.1 | > 1 | 0.5 to 2 |
| Cc1ccc(S(=O)(=O)NC2COC2)cc1-c1cnc2c(N)ncnn12 [Example 104, 3-(4-Aminoimidazo[1,2-f][1,2,4]triazin-7-yl)-4-methyl-N-(oxetan-3-yl)benzenesulfonamide] | < 0.1 | 0.5 to 1 | 0.5 to 2 |
| Cc1ccc(S(=O)(=O)NC23CC(C2)C3)cc1-c1cnc2c(N)ncnn12 [Example 106, 3-(4-Aminoimidazo[1,2-f][1,2,4]triazin-7-yl)-N-(bicyclo[1.1.1]pentan-1-yl)-4-methylbenzenesulfonamide trifluoroacetate salt] | < 0.1 | > 1 | 0.5 to 2 |
| Cc1ccc(S(=O)(=O)NC23CCC(CO)(C2)C3)cc1-c1cnc2c(N)ncnn12 [Example 107, 3-(4-Aminoimidazo[1,2-f][1,2,4]triazin-7-yl)-N-(4-(hydroxymethyl)bicyclo[2.1.1]hexan-1-yl)-4-methylbenzenesulfonamide trifluoroacetate salt] | < 0.1 | 0.5 to 1 | 0.1 to 0.5 |
